Test results reported in US8133872B2 (Industrial Cooperation Foundation, Chonbuk National …, priority 2008, dated 2012).
Entries after “also recorded” stand apart in the source; their conditions may differ.

What was measured:
[1] = tested on: type-2 diabetic mice (C57BL/KsJ-db/db Jcl); experiment: Serum insulin after glucose load in type-2 diabetic mice given NAADP (insulin RIA kit); assay type: in vivo
Experimental: The same test method as described in Example 2 was used, and 50 μl of blood was collected from the tail vein just before glucose load. At 30 minutes (showing the highest blood glucose level after glucose load) and at 120 minutes (showing the lowest blood glucose level after glucose load), the same amount of blood was collected and coagulated, and serum was separated from the blood. The separated serum was measured for insulin concentration using an insulin RIA kit (Linco Research Inc., USA).

[2] = tested on: type-2 diabetic mice (C57BL/KsJ-db/db Jcl); experiment: Glucose tolerance test (blood glucose after glucose load) in type-2 diabetic mice given NAADP by osmotic mini-pump; assay type: in vivo
Description: Seven-week-old type-2 diabetic mice were divided into a control group (five animals) and test groups and tested using an osmotic mini-pump in the following manner. […] Then, the NAADP solution was infused into the abdominal cavity of the mice according to the method described in the supplier's manual.

[3] = tested on: pancreatic β-islet cells; experiment: Insulin secretion from isolated mouse pancreatic islets treated with NAADP (radioimmunoassay); assay type: cell-based, mice
Experimental: The isolation of pancreatic islets from six, 8-week-old ICR mice (Orientbio Inc., Seongnam-si, Korea) weighing 25-30 g was carried out according to the method of Lacy and Kotianovsky (Diabetes, 16, 35-39, 1967) in the following manner. Mice were sacrificed by cervical dislocation, and the peritoneum was incised. Hank's balanced salt solution (HBSS, Gibco, USA) containing 1 mg/mL of collagenase (Sigma, USA) was infused into the bile duct to inflate the pancreas, and then the pancreas was isolated. The isolated pancreas was incubated at 37° C. for 20 minutes, and then homogeneously agitated. The agitated solution was washed with HBSS to remove acinar cells, and then pancreatic islets of a given size were separated from the solution under stereoscopic binocular microscope. […] The concentration of insulin in the supernatant from which the pancreatic β-islet cells have been removed was measured. The measurement of the insulin concentration was carried out by radioimmunoassay using an insulin measurement kit (Diagnostic Products Corp., USA).
Insulin secretion from the mouse pancreatic β-islet cells after treatment by 0 nM and 50 nM at extracellular glucose concentrations maintained at 2.8 mM and 12 mM was measured, and the measurement results are shown in FIG. 1.

[4] = tested on: pancreatic islet cells of type-2 diabetic mice; experiment: Immunohistochemical (anti-insulin antibody) and hematoxylin-eosin staining of pancreatic islets; assay type: in vivo; details: 1 mg/kg/day for 3 weeks, FIG. 4
Experimental: After 120 minutes, the mice were sacrificed by cervical dislocation, and then immediately the peritoneum was incised. Then, the intestinal and pancreatic tissues were collected and fixed in 4% paraformaldehyde solution (solvent-phosphate buffer; pH 7.4; Sigma, USA) for 12 hours or more. Then, the pancreatic tissue was separated from the intestinal or adipose tissue, and the separated tissue was washed three times or more with a fresh fixture and then processed into paraffin-embedded tissue according to a conventional method.
Tissue sections were cut from the paraffin-embedded tissue at 5-μm intervals using a microtome (Shandon, Germany) and applied to slides coated with poly-L-lysine (Sigma, USA) before use in immunohistochemical staining. In order to remove paraffin from the pancreatic tissue-coated slides, sections were deparaffinized with xylene (Junsei, Japan) for 5 minutes to remove paraffin. Then, the sections were hydrated in 100-70% alcohol series and allowed to stand in phosphate buffer (pH 7.4) for 5 minutes. Then, the sections were treated with 3% hydrogen peroxide to remove intrinsic peroxidase, and then allowed to react with anti-insulin antibody (Dako, USA) at 4° C. for 12 hours. Then, the section samples were subjected to immunohistochemical staining with anti-insulin antibody using an immunohistochemical staining kit (A.B.I., Jeonju-si, Korea). […]

[5] = 1 mg/kg/day NAADP by osmotic mini-pump, sera at 0, 30 and 120 min
[6] = 1 mg/kg/day NAADP by osmotic mini-pump, fasting from 13 hours before testing

Substance: nicotinic acid adenine dinucleotide phosphate [NAADP]
- blood insulin level after the peak, up to 120 minutes after glucose load [1, 5]: maintained at a constant level
- time of blood insulin peak after glucose load [1, 5]: 30 min
- blood insulin concentration ([1]; 1 mg/kg/day, at 3 weeks (10-week-old), after glucose load, FIG. 3): clear increase in blood insulin concentration
- time at which blood glucose returned to the fasting blood glucose level after glucose load [2, 6]: 120 min
- time of blood glucose peak after glucose load [2, 6]: 30 min
- blood glucose levels ([2]; 1 mg/kg/day intraperitoneally by osmotic mini-pump, 3 weeks, type-2 diabetic mice, FIG. 2): clear decrease in blood glucose levels; also recorded: clear effect of lowering the blood glucose levels
- insulin secretion from pancreatic β-islet cells ([3]; 50 nM NAADP, glucose 12 mM, 37° C., FIG. 1): great increase in insulin secretion
- NAADP concentration essential for stimulating insulin secretion from pancreatic β-islet cells ([3]; in the presence of glucose): 5 to 500 nM
- hematoxylin-eosin staining: capsules covering the pancreatic islets and β-islet cells [4]: clustered together
- positive response of pancreatic β-islet cells to anti-insulin antibody ([4]; compared to control group): clearly increased
